Experimental data: US8933063B2, “Preparation of a crystalline antibiotic substance” (Leo Pharma A/S, priority 2005, dated 2015)

Assay: Stability assay: six month storage stability of polymorphic forms of fusidic acid (HPLC)
Format: physicochemical
Conditions: for HPLC-assay (% of origin) / Impurities total (%): after 6 month storage at 40° C., solid crystal form

| SMILES | HPLC-assay (% of origin) | Impurities total (%) | HPLC-assay (% of origin) (hemihydrate) | Impurities total (%) (hemihydrate) | Relative stability among known forms of fusidic acid (comparative six month standard stability study) |
| --- | --- | --- | --- | --- | --- |
| CC(=O)O[C@H]1C[C@@]2(C)[C@@H](C[C@@H](O)[C@H]3[C@@]4(C)CC[C@@H](O)[C@@H](C)[C@@H]4CC[C@@]32C)/C1=C(\CCC=C(C)C)C(=O)O [Fusidic acid form I from ES 2208110, Fusidic acid] | 98.2 % of origin | 1.0 |  |  |  |
| CC(=O)O[C@H]1C[C@@]2(C)[C@@H](C[C@@H](O)[C@H]3[C@@]4(C)CC[C@@H](O)[C@@H](C)[C@@H]4CC[C@@]32C)/C1=C(\CCC=C(C)C)C(=O)O [Fusidic acid form II from ES 2208110, Fusidic acid] | 88.2 % of origin | 5.2 |  |  |  |
| CC(=O)O[C@H]1C[C@@]2(C)[C@@H](C[C@@H](O)[C@H]3[C@@]4(C)CC[C@@H](O)[C@@H](C)[C@@H]4CC[C@@]32C)/C1=C(\CCC=C(C)C)C(=O)O [Fusidic acid hemihydrate] |  |  | 87.7 % of origin | 8.7 |  |
| CC(=O)O[C@H]1C[C@@]2(C)[C@@H](C[C@@H](O)[C@H]3[C@@]4(C)CC[C@@H](O)[C@@H](C)[C@@H]4CC[C@@]32C)/C1=C(\CCC=C(C)C)C(=O)O [Fusidic acid of the present invention, Fusidic acid] | 99.2 % of origin | 0.1 |  |  | most stable form |
